Here are results for two compounds from article PMC9600963, “Cation ATPase (ATP4) Orthologue Replacement in the Malaria Parasite Plasmodium knowlesi Reveals Species-Specific Responses to ATP4-Targeting Drugs” (mBio, 2022).

What all share (assay type): cell-based
Assay [1] addresses T1, PvATP4 (PvATP4^OR line) (Plasmodium vivax, UniProt A5K0L8).
T1 construct: gene PVX_084625; full-length recodonized coding region replacing pkatp4 in P. knowlesi A1-H.1; untagged; intact parasites
Kind of assay: growth inhibition of orthologue replacement parasite line, SYBR green I (whole-cell read-out). To be noted: intact P. knowlesi parasites in erythrocytes, 27 h (one life cycle); not a direct enzyme assay. The text has this:
growth inhibition of orthologue replacement parasite line, SYBR green I (whole-cell read-out) on PvATP4 (PvATP4^OR line)

For assay [2], the target named is T2, PmATP4 (PmATP4^OR line) (Plasmodium malariae, UniProt A0A1A8WBD6).
T2 construct: gene ATP4; full-length recodonized coding region replacing pkatp4 in P. knowlesi A1-H.1; untagged; intact parasites
T2 sequence (A0A1A8WBD6 1-1380): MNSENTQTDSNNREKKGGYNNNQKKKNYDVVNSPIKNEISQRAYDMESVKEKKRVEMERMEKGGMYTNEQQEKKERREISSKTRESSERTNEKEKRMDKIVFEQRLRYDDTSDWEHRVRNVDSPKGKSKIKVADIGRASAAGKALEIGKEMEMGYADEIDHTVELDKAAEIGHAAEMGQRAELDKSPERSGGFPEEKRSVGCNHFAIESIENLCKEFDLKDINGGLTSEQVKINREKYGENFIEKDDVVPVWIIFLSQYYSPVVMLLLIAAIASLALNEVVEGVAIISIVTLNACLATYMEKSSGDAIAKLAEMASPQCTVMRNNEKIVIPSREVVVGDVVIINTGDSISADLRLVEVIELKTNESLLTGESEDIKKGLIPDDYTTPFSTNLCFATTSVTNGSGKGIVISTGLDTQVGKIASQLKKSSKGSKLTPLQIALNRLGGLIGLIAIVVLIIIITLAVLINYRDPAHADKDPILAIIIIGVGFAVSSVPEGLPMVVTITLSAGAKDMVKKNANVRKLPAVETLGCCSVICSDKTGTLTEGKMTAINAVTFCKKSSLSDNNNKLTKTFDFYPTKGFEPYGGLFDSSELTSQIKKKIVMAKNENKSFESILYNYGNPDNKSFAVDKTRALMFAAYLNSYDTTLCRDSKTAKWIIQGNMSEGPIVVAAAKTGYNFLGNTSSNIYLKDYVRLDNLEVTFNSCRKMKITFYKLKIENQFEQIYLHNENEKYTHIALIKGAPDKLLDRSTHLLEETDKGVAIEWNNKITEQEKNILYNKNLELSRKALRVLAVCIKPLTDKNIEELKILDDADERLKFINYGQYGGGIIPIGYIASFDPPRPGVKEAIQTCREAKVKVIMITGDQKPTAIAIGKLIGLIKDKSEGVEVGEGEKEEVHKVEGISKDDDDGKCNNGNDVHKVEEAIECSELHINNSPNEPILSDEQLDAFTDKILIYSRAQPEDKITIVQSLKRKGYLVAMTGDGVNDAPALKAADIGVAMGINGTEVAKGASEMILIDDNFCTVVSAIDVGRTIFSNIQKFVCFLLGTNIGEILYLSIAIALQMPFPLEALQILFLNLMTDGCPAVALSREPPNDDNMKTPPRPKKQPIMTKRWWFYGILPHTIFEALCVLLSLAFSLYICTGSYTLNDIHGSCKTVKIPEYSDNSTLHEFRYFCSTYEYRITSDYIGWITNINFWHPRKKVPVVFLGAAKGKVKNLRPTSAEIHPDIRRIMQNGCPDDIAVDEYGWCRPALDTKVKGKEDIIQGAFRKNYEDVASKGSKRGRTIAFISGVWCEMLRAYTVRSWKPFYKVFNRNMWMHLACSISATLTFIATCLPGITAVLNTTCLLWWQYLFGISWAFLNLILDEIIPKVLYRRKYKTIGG
Kind of assay: SBFI fluorescence of intracellular Na+ in saponin-isolated trophozoites. As to conditions: 0.1 µM, physiological saline, pH 7.1, 37°C. The source says: SBFI fluorescence of intracellular Na+ in saponin-isolated trophozoites on PmATP4 (PmATP4^OR line)

Assay [3] deals with T3, PocATP4 (PocATP4^OR line) (Plasmodium ovale, UniProt A0A1D3TM67).
T3 construct: gene ATP4; full-length recodonized coding region replacing pkatp4 in P. knowlesi A1-H.1; untagged; intact parasites
T3 sequence (A0A1D3TM67 1-1433): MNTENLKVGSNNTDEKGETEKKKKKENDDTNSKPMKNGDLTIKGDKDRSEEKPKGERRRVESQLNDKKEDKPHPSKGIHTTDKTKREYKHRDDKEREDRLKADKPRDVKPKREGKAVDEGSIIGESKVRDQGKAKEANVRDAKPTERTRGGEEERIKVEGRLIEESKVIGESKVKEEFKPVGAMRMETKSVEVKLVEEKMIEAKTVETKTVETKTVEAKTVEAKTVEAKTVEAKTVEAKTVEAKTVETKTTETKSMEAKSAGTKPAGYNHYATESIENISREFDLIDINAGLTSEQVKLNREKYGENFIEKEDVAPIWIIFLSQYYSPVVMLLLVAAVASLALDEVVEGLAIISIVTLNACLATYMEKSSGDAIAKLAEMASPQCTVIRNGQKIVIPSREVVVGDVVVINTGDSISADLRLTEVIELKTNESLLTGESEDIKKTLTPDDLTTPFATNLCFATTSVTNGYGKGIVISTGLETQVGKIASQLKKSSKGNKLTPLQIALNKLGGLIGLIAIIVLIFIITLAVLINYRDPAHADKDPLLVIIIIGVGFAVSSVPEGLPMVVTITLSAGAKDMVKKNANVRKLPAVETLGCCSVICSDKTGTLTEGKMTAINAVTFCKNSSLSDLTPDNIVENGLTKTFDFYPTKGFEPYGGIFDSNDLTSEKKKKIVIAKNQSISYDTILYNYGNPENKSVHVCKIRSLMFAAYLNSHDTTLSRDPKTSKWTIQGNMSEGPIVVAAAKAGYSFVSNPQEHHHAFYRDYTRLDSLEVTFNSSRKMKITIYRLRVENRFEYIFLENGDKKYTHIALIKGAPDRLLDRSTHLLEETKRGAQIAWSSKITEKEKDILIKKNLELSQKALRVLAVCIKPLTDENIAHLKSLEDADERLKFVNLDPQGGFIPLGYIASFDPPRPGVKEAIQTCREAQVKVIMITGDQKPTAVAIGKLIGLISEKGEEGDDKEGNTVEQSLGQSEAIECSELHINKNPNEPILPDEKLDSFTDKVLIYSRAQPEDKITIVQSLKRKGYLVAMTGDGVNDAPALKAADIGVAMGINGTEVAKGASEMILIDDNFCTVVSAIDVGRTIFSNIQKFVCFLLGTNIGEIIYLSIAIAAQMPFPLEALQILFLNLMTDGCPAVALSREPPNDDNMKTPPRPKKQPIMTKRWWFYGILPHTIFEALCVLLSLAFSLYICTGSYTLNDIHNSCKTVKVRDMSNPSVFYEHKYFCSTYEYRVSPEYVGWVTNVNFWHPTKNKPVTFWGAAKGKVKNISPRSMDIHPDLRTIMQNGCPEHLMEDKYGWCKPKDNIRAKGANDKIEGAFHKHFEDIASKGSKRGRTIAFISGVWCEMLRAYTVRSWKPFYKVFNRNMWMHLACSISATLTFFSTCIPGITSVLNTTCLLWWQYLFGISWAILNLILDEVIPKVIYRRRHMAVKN
Kind of assay: growth inhibition of orthologue replacement parasite line, SYBR green I (whole-cell read-out). To be noted: intact P. knowlesi parasites in erythrocytes, 27 h (one life cycle); not a direct enzyme assay. The source says: growth inhibition of orthologue replacement parasite line, SYBR green I (whole-cell read-out) on PocATP4 (PocATP4^OR line)

For assay [4], the target named is T4, PkATP4 (PkATP4^OR line) (Plasmodium knowlesi, UniProt A0A384LKC1).
T4 construct: gene PKNH_1312000; untagged; intact parasites
T4 sequence (A0A384LKC1 1-1293): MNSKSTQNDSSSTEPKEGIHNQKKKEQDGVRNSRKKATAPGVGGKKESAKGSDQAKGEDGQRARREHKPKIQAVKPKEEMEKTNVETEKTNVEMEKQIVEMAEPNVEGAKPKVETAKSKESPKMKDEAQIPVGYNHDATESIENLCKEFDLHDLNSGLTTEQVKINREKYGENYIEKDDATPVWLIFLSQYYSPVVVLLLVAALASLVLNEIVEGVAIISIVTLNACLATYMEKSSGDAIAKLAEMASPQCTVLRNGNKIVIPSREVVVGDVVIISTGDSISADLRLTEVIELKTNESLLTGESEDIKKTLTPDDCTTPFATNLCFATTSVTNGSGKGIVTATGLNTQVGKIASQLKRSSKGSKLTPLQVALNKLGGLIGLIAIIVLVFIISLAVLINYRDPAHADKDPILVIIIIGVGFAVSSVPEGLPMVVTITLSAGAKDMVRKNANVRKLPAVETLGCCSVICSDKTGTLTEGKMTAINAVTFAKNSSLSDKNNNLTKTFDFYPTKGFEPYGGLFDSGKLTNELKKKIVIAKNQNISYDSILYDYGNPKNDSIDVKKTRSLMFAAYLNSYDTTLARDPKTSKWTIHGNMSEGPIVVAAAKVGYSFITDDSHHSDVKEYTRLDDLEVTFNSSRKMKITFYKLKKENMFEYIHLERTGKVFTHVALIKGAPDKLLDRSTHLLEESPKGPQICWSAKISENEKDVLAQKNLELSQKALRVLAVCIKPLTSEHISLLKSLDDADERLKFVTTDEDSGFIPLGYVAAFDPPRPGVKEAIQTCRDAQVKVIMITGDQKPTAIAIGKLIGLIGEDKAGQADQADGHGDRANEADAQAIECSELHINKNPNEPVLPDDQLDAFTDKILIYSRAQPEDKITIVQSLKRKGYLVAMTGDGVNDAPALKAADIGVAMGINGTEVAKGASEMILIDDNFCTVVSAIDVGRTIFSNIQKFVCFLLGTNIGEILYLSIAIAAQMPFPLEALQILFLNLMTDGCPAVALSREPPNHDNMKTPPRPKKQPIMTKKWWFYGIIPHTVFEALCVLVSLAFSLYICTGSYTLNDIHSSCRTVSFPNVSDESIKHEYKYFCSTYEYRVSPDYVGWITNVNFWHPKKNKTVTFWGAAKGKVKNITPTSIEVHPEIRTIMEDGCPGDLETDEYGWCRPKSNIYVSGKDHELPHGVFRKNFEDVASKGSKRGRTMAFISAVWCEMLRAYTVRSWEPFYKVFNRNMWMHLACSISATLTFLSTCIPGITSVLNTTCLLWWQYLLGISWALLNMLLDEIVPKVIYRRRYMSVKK
Kind of assay: SBFI fluorescence of intracellular Na+ in saponin-isolated trophozoites. As to conditions: 0.1 µM, physiological saline, pH 7.1, 37°C. The source says:
SBFI fluorescence of intracellular Na+ in saponin-isolated trophozoites on PkATP4 (PkATP4^OR line)

The target of assay [5] is T5, PfATP4 (PfATP4^OR line) (Plasmodium falciparum, UniProt A0A143ZZK9).
T5 construct: gene ATP4; full-length recodonized coding region replacing pkatp4 in P. knowlesi A1-H.1; untagged; intact parasites
T5 sequence (A0A143ZZK9 whole entry): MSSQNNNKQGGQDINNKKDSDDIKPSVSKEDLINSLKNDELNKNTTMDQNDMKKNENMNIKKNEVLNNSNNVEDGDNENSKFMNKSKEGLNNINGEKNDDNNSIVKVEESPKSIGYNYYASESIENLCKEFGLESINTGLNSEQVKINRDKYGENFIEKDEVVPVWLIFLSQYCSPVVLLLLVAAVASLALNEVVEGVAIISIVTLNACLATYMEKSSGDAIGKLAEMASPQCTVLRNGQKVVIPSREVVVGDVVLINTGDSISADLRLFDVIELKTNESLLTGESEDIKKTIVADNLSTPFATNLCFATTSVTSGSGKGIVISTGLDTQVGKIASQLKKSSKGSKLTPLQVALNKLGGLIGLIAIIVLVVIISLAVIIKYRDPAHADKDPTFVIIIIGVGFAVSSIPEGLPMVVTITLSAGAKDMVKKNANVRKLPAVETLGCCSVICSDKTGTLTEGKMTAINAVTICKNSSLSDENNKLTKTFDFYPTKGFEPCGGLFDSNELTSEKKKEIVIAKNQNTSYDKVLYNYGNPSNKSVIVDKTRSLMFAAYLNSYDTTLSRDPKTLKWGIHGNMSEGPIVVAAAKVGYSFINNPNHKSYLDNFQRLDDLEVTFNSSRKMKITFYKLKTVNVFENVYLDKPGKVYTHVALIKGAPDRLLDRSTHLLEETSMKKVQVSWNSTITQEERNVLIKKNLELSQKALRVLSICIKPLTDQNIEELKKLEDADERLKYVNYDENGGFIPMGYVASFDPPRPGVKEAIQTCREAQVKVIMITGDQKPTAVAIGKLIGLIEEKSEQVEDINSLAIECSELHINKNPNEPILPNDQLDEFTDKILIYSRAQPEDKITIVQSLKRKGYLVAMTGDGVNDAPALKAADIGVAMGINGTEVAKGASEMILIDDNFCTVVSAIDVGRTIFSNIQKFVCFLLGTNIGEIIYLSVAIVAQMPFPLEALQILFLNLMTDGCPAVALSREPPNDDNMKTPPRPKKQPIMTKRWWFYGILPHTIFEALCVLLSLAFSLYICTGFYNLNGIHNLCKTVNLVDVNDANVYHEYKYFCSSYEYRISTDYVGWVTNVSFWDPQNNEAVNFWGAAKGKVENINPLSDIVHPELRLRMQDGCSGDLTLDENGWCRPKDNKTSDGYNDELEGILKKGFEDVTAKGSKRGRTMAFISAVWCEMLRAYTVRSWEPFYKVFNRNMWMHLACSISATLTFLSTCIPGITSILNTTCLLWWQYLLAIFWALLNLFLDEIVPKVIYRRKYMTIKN
Nature of the assay: growth inhibition of orthologue replacement parasite line, SYBR green I (whole-cell read-out). As to conditions: intact P. knowlesi parasites in erythrocytes, 27 h (one life cycle); not a direct enzyme assay. The source says:
growth inhibition of orthologue replacement parasite line, SYBR green I (whole-cell read-out) on PfATP4 (PfATP4^OR line)

In assay [6] the target is T4, PkATP4 (PkATP4^OR line). Described as above. As to conditions: intact P. knowlesi parasites in erythrocytes, 27 h (one life cycle); not a direct enzyme assay. The source says: growth inhibition of orthologue replacement parasite line, SYBR green I (whole-cell read-out) on PkATP4 (PkATP4^OR line)
The target in assay [7] is T5, PfATP4 (PfATP4^OR line). Kind of assay: SBFI fluorescence of intracellular Na+ in saponin-isolated trophozoites. To be noted: 0.1 µM, physiological saline, pH 7.1, 37°C. The text has this:
SBFI fluorescence of intracellular Na+ in saponin-isolated trophozoites on PfATP4 (PfATP4^OR line)

For assay [8], the target named is T3, PocATP4 (PocATP4^OR line). The assay is described as above. As to conditions: 0.1 µM, physiological saline, pH 7.1, 37°C. The text has this: SBFI fluorescence of intracellular Na+ in saponin-isolated trophozoites on PocATP4 (PocATP4^OR line)
Assay [9] deals with T2, PmATP4 (PmATP4^OR line). Nature of the assay: growth inhibition of orthologue replacement parasite line, SYBR green I (whole-cell read-out). To be noted: intact P. knowlesi parasites in erythrocytes, 27 h (one life cycle); not a direct enzyme assay. The text has this: growth inhibition of orthologue replacement parasite line, SYBR green I (whole-cell read-out) on PmATP4 (PmATP4^OR line)

The target of assay [10] is T1, PvATP4 (PvATP4^OR line). Kind of assay: SBFI fluorescence of intracellular Na+ in saponin-isolated trophozoites. To be noted: 0.1 µM, physiological saline, pH 7.1, 37°C. The text has this:
SBFI fluorescence of intracellular Na+ in saponin-isolated trophozoites on PvATP4 (PvATP4^OR line)

On to `C[C@H]1Cc2c([nH]c3cc(Cl)c(F)cc23)[C@@]2(N1)C(=O)Nc1ccc(Cl)cc12` [cipargamin], for which the “EC50, nM (P value) / Cipargamin” value in assay [1] was 22.9 ± 4.2 nM; in [3], 34.1 ± 1.6 nM; in [5], 1.62 ± 0.37 nM; in [6], 13.5 ± 2.4 nM; in assay [9], 9.44 ± 2.0 nM. Moreover, the “Rate of increase in [Na^+]i 10 min after cipargamin exposure, μM/s (P value)” value in assay [2] was 35.7 ± 8.07 µM/s; in assay [4], 35.8 ± 9.98 µM/s; in assay [7], 203.2 ± 54.1 µM/s; in assay [8] it was 41.5 ± 8.85 µM/s; in [10], 96.6 ± 47.3 µM/s.

For the compound PA21A092, the “EC50, nM (P value) / PA21A092” value is given as 94.8 ± 14.6 nM in [1]; 599 ± 70 nM in [3]; 17.8 ± 2.9 nM in assay [5]; 126 ± 5.5 nM in [6]; 92.8 ± 14.7 nM in assay [9].
